Drawing on PubChem BioAssay (NCI), this text covers GI50 and TGI for 9 compounds.

Among the test systems are KM12 colon; SF-268 CNS; MDA-MB-435; RXF 393 renal; MDA-MB-231 breast; NCI-H226 lung; NCI/ADR-RES ovarian; HT29 colon; HCC-2998 colon; MALME-3M melanoma.
What all share (assay): growth of human tumour cells (NCI), 48 h

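Cells were grown in 96-well plates and exposed to each compound for 48 hours at five concentrations; endpoints were interpolated linearly between bracketing concentrations, or set to the highest concentration if not reached. Here, GI50 denotes the concentration required for 50% inhibition of growth. At the TGI there is no net growth.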 Some results are limits rather than exact numbers.

With `COc1ccc(C2C(C#N)=C(N)OC3=C2COc2ccc(F)cc23)cc1OC` (stereo unspecified), the GI50 in the experiment with KM12 colon was 23.5 µM; in the experiment with SF-268 CNS, 33.3 µM; in the experiment on MDA-MB-435, 23.6 µM; in the experiment with RXF 393 renal it was 69.3 µM; with MDA-MB-231 breast, 14.3 µM; with NCI-H226 lung it was 13.9 µM. Besides, in the experiment with NCI/ADR-RES ovarian, the GI50 is 19.4 µM. Moreover, the TGI in the experiment on KM12 colon is 69.2 µM; in the experiment on SF-268 CNS it was more than 100 µM; in the experiment with MDA-MB-435, 62.3 µM; in the experiment on RXF 393 renal it was more than 100 µM; in the experiment on MDA-MB-231 breast, 58.8 µM; in the experiment on NCI-H226 lung it was 51.1 µM. The compound also yielded a TGI with NCI/ADR-RES ovarian of 57.3 µM.
On to `O=C(Nc1ccc(Cl)cc1F)c1cc(Br)ccc1O`, for which the GI50 was 3.67 µM in the experiment on HT29 colon; 2.13 µM in the experiment with KM12 colon; 2.73 µM with HCC-2998 colon; 0.745 µM in the experiment on SF-268 CNS; 0.941 µM in the experiment with MDA-MB-435; 0.799 µM with RXF 393 renal. The GI50 is 0.968 µM in the experiment on MDA-MB-231 breast, 1.16 µM with NCI-H226 lung, 1.39 µM in the experiment on NCI/ADR-RES ovarian and 0.595 µM in the experiment on MALME-3M melanoma. In addition, the TGI in the experiment on HT29 colon is more than 100 µM; in the experiment with KM12 colon, 5.92 µM; with HCC-2998 colon, 13.3 µM; in the experiment with SF-268 CNS, 9.66 µM; with MDA-MB-435, 8.44 µM; with RXF 393 renal, 3.75 µM. Further, the TGI in the experiment on MDA-MB-231 breast turned out to be 8.12 µM; with NCI-H226 lung it was 4.11 µM; in the experiment with NCI/ADR-RES ovarian it was 14.6 µM; with MALME-3M melanoma, 2.65 µM.
As for `O=C(O)Cc1c(O)ccc2ccccc12`, the TGI with HT29 colon, in the experiment with KM12 colon, in the experiment with SF-268 CNS, in the experiment on MDA-MB-435, in the experiment on RXF 393 renal and with MDA-MB-231 breast was more than 100 µM throughout. Besides, the TGI in the experiment with NCI-H226 lung, in the experiment on NCI/ADR-RES ovarian and with MALME-3M melanoma was more than 100 µM each time.
Regarding `O=C(O)c1cccc(OCCO)c1`, the TGI with HT29 colon, with KM12 colon, with SF-268 CNS, with MDA-MB-435, in the experiment on RXF 393 renal and with MDA-MB-231 breast was more than 100 µM in each case. Moreover, the TGI with NCI-H226 lung, in the experiment on NCI/ADR-RES ovarian and in the experiment on MALME-3M melanoma was more than 100 µM throughout.
On to `Nc1ccncc1/C=C1/C(=O)Nc2ccccc21`, for which the GI50 is 27.8 µM in the experiment with HT29 colon; 25 µM with KM12 colon; 25.3 µM in the experiment with HCC-2998 colon; 28 µM with SF-268 CNS; 14.4 µM in the experiment on MDA-MB-435; 50.1 µM in the experiment on MDA-MB-231 breast. Besides, the GI50 in the experiment on NCI-H226 lung is 40.5 µM; in the experiment with NCI/ADR-RES ovarian, 35.9 µM; in the experiment with MALME-3M melanoma it was 20.6 µM. The TGI in the experiment on HT29 colon is more than 100 µM; in the experiment with KM12 colon it was more than 100 µM; in the experiment on HCC-2998 colon, 59.9 µM; with SF-268 CNS, more than 100 µM; in the experiment on MDA-MB-435 it was 35.4 µM; in the experiment on MDA-MB-231 breast, more than 100 µM. For the same compound, the TGI with NCI-H226 lung was more than 100 µM; in the experiment on NCI/ADR-RES ovarian, more than 100 µM; in the experiment on MALME-3M melanoma, 80.9 µM.
On to `CCN(CC)CCNCC(=O)Oc1ccc(/C=C/C(=O)CC(=O)/C=C/c2ccc(OC(=O)CNCCN(CC)CC)c(OC)c2)cc1OC`, for which the GI50 in the experiment on HT29 colon is 2.36 µM; with KM12 colon, 3.5 µM; in the experiment with HCC-2998 colon, 2.1 µM; with SF-268 CNS, 3.68 µM; in the experiment on MDA-MB-435, 2.48 µM; in the experiment on MDA-MB-231 breast, 4.94 µM. Further, the GI50 in the experiment with NCI-H226 lung is 6.97 µM; in the experiment with NCI/ADR-RES ovarian, 5.73 µM; in the experiment on MALME-3M melanoma it was 2.57 µM. Besides, the TGI is 6.02 µM with HT29 colon; 31.6 µM in the experiment on KM12 colon; 4.36 µM in the experiment on HCC-2998 colon; more than 100 µM with SF-268 CNS; 12.4 µM with MDA-MB-435; 29.3 µM in the experiment on MDA-MB-231 breast. Besides, the TGI in the experiment on NCI-H226 lung was 22.1 µM; with NCI/ADR-RES ovarian it was more than 100 µM; in the experiment on MALME-3M melanoma it was 7.65 µM.
With `Nc1c(C(=O)N/N=C/c2ccc(-c3ccc(Cl)cc3)o2)cnn1-c1ccnc2c(C(F)(F)F)cccc12`, the GI50 with HT29 colon was 77.4 µM; in the experiment on KM12 colon, more than 100 µM; in the experiment with HCC-2998 colon, more than 100 µM; in the experiment with SF-268 CNS, more than 100 µM; in the experiment on MDA-MB-435 it was more than 100 µM; in the experiment on MDA-MB-231 breast it was more than 100 µM. Also, the GI50 in the experiment on NCI-H226 lung, in the experiment on NCI/ADR-RES ovarian and in the experiment on MALME-3M melanoma was more than 100 µM each time. Besides, the TGI in the experiment with HT29 colon, with KM12 colon, in the experiment on HCC-2998 colon, in the experiment with SF-268 CNS, with MDA-MB-435 and in the experiment on MDA-MB-231 breast was more than 100 µM each time. In addition, the TGI in the experiment on NCI-H226 lung, in the experiment with NCI/ADR-RES ovarian and in the experiment with MALME-3M melanoma was more than 100 µM throughout.
Regarding `O=C(O)c1c(-c2nccc3ccccc23)[nH]c(-c2ccccc2)c1S(=O)(=O)O`, the TGI with HT29 colon, in the experiment on KM12 colon, with SF-268 CNS, with MDA-MB-435, in the experiment on RXF 393 renal and with MDA-MB-231 breast was more than 100 µM each time. In addition, the TGI with NCI-H226 lung, in the experiment with NCI/ADR-RES ovarian and in the experiment on MALME-3M melanoma was more than 100 µM throughout.
As to `CC(=O)Oc1ccccc1C(=O)N=C1[Se]CCCN1C(=O)c1ccccc1OC(C)=O`, the GI50 in the experiment with HT29 colon was 3.15 µM; in the experiment on HCC-2998 colon, 3.42 µM; in the experiment on MDA-MB-435, 1.98 µM; in the experiment with RXF 393 renal it was 2.48 µM; in the experiment with MDA-MB-231 breast it was 2.22 µM; in the experiment on NCI-H226 lung it was 2.01 µM. In addition, the GI50 with NCI/ADR-RES ovarian was 2.92 µM; in the experiment on MALME-3M melanoma, 2.31 µM. The TGI was determined as 8.73 µM in the experiment on HT29 colon; 15.6 µM in the experiment on HCC-2998 colon; 4.76 µM in the experiment on MDA-MB-435; 6.92 µM with RXF 393 renal; 5.02 µM in the experiment with MDA-MB-231 breast; 4.74 µM with NCI-H226 lung. Also, the figures for the TGI in the experiment with NCI/ADR-RES ovarian and in the experiment with MALME-3M melanoma were 8.09 µM and 4.9 µM, respectively.
